Like-named read-outs stand apart in the source and are kept apart here.
Key:
T cells = assay: T cell viability after pretreatment with CHP components; format: cell-based
[1] = test system: CD20-expressing Raji-luc tumor cells; details: NOD-SCID mice injected with Raji-luc tumor cells and PBMCs; even in the presence of an excess of IgG1-RTX-FEAR; cited from earlier work
[2] = test system: relapsed or refractory (R/R) B-NHL; highly refractory large B-cell lymphoma; details: cited from earlier work
[3] = test system: CD20-expressing Daudi cells; details: 333 ng/ml DuoBody-CD3xCD20, 4 donors
Method: Briefly, T cells were pre-incubated with cyclophosphamide, doxorubicin, or prednisone for 16 hours and subsequently used in a cytotoxicity assay with epcoritamab and CD20-expressing Daudi cells as target cells (E: T ratio 2:1), in which cyclophosphamide, doxorubicin, or prednisone was added in the same concentration as during pre-incubation, respectively. Data are presented as percent viable target cells (CD4-CD8-CD22+), normalized to medium control (no Ab, no CHP component).

[4] = test system: primary DLBCL and follicular lymphoma patient biopsies; details: cited from earlier work
[5] = T cells pre-incubated for 16 hours
[6] = highly refractory large B-cell lymphoma, n=157

In the case of `O=P1(N(CCCl)CCCl)NCCCO1` (centres unmarked) [cyclophosphamide, 2H-1,3,2-Oxazaphosphorin-2-amine, N,N-bis(2-chloroethyl)tetrahydro-, 2-oxide], the “T cell viability after pretreatment” value (T cells) is reported as “did not impact T cell viability”.

In the case of `COc1cccc2c1C(=O)c1c(O)c3c(c(O)c1C2=O)C[C@@](O)(C(=O)CO)C[C@@H]3O[C@H]1C[C@H](N)[C@H](O)[C@H](C)O1` [doxorubicin], the “T cell viability after pretreatment” value (T cells; [5]) is reported as “reduction in T cell viability”.

For `C[C@]12C=CC(=O)C=C1CC[C@@H]1[C@@H]2C(=O)C[C@@]2(C)[C@H]1CC[C@]2(O)C(=O)CO` [prednisone, 17,21-dihydroxypregna-1,4-diene-3,11,20-trione], the “T cell viability after pretreatment” value (T cells; [5]) was “did not impact T cell viability”.

For “epcoritamab: IgG1 bispecific CD3×CD20 antibody; heavy and light chain pairs SEQ ID NOs: 24/25 (CD3ε arm) and 26/27 (CD20 arm); CAS 2134641-34-0”, the “tumor growth in the xenograft model” value [1] is listed as “effectively reduce tumor growth”, the “complete response (CR) rate” value [2, 6] is listed as 39% and the “median duration of response (DOR)” value [2, 6] is listed as 12 months. For the same molecule, the “overall response rate (ORR)” value [2, 6] was 63%, the safety profile ([2]; in vivo) was “manageable safety profile” and the “viable B cells left after incubation” value ([3]; T cells pretreated with cyclophosphamide, FIG. 1A right panel) was “very low percentages of viable B cells”. For the same molecule, the “viable B cells left after incubation” value ([3]; T cells pretreated with prednisone, FIG. 1C right panel) was “very low percentages of viable B cells” and the T-cell-mediated cytotoxicity [4] was “induced T-cell-mediated cytotoxicity”.

— patent publication US20250101102A1, “BISPECIFIC ANTIBODY AGAINST CD3 AND CD20 IN COMBINATION THERAPY FOR TREATING DIFFUSE LARGE B-CELL LYMPHOMA” (GENMAB A/S, priority 2022, published 2025)
